We go through five compounds from US20210128537A1, “T-TYPE CALCIUM CHANNEL MODULATORS AND METHODS OF USE THEREOF” (Praxis Precision Medicines, inc., priority 2016, published 2021).

Like-named read-outs stand apart in the source and are kept apart here.

Usually IC50 stands for the point on the concentration scale where inhibition reaches its midpoint. Low readings indicate greater potency in that assay, high ones weaker potency in that assay.

Data set [1] concerns the target hCaV3.2 (Homo sapiens, UniProt O95180). Description: Inactivated channel state FLIPR assay, concentration-dependent inhibition of hCaV3.2. The conditions noted are these: for IC50: hCaV3.2, inactivated channel state FLIPR, n=4 wells per concentration; for slope of the concentration-inhibition curve: logistic function fit. Format: cell-based.
The subject of data set [2] is fully kindled rats. Description: Amygdala kindling model, anti-seizure testing in fully kindled rats. The format is in vivo, rat. The following applies: for primary after discharge: all four doses of Z944, ETX 100 mg/kg, compared to vehicle (p>0.5). Here is the method:
Animals were implanted with EEG recording electrodes and with a stimulating bipolar electrode in the left basolateral amygdaloid nucleus using the coordinates AP±3.0 mm, ML±5.9 mm, DV±6.0 mm. The after discharge threshold (ADT) for each animal was determined by administering a stimulation (frequency=60.1 Hz; duration=1000 μs) at one minute intervals until a seizure was clicited. The amplitude of the stimulation was started at 0.02 mA with increments of 0.02 mA; the stimulations were stopped when the animal experienced a seizure of ≥6 second duration, or if the amplitude of 0.40 mA was reached without the occurrence of a seizure. […] Kindling was performed twice a day for five days per week with an endpoint of 30 stimulations or until the animal presented five class V seizures (referred to as fully kindled). The seizure severity was classified from 0 (less severe) to V (most severe) according to the Racine Scale (Racine, 1972b). Sham kindled animals were handled the same way as the kindled animals, although no electrical stimulation was applied. An animal is classified as fully kindled once it has experienced 5 class V seizures.
Drug testing was performed twice a week until all animals had received each of the seven treatments, Z944 (5 mg/kg, 10 mg/kg, 30 mg/kg and 100 mg/kg), vehicle (10% DMSO/90% Na^+-CMC or CBZ vehicle 20% DMSO/40% propylene glycol/40% saline), ETX (100 mg/kg) or CBZ (30 mg/kg). Prior to drug testing each day, animals were subjected to a maximum of three pre-drug stimulations 30 minutes apart. The animals qualified for testing on that particular day if a class IV or V seizure was elicited in at least 2 out of 3 pre-drug stimulations. Stimulations consisted of a 1 second train of 1 ms biphasic square wave pulses at a frequency of 60 Hz with current amplitude based on each animal ADT that elicited a seizure. Thirty minutes after the last pre-drug stimulation, the animals received an IP injection of one of the seven treatments in a randomized manner at a dose volume of 5 ml/kg. Six post-drug stimulations were administered to each animal, the first stimulation was given 15 minutes post drug injection (to allow brain penetration of the drugs) and the following five stimulations were delivered in 30 minutes intervals thereafter with the seizure class elicited being recorded after each post-drug stimulation. The duration of the primary and total seizures, if any, were recorded. An investigator blinded to the drug treatment analyzed all EEG recordings. Primary after discharge is the duration of the seizure elicited from the kindling stimulation. Total after discharge is the total seizure duration including any secondary seizures that occur after the primary after discharge. Primary after discharge duration and total seizure duration were recorded and averaged for the 6 post-drug stimulations.
Animal weight and behaviour when handled were monitored for the duration of the experimental period. Additionally, animals were assessed by observation for any adverse effects of drugs on grooming, fur appearance, gait, and excretion.

Data set [3] deals with absence seizures in patients. The following applies: cited from earlier work.
In data set [4] the test system is post-SE rats. Description: Kainic acid induced post-status epilepticus model, video-EEG seizure analysis. Format: in vivo, rat. The following applies: osmotic pump 4 weeks; Z944 60 mg/kg/day, levetiracetam 200 mg/kg/day. The protocol:
Pumps were filled with either Z944 to deliver a daily dose of 60 mg/kg, levetiracetam to deliver a daily dose of 200 mg/kg or vehicle. For the drug tolerability study, osmotic pumps continuously either Z944, levetiracetam or vehicle for 7 days and for the post-SE study osmotic pumps delivered continuously the different treatments for 28 days.
FIG. 11 summarizes the different methods used on this experimental paradigm.
Animals were implanted with subdural EEG recording electrodes and one week after surgery, the animals were connected using cables that allowed them free movement around their cage. A repeated low dose KA administration protocol was used. Rats were injected i.p. with an initial dose of KA 7.5 mg/kg plus 3 ml of normal saline to prevent dehydration. Animals were monitored for 45 minutes for EEG and behavioural seizures based on the Racine scale. […] This was repeated up to 2 times every 45 minutes. An animal was eliminated from the experiment if it didn't show a stable self-sustained SE after a maximum KA total dose of 15 mg/kg. Two sham groups were treated identically but received saline injections instead of KA. After four hours of sustained electroencephalographic and behavioural seizures the animals were randomly allocated to one of the five treatment groups: sham+vehicle (n=6), sham+Z944 (n=6), post-SE+vehicle (n=8), post-SE+Z944 (n=8), post-SE+levetiracetam (n=9).
Animals were anesthetized and implanted with subcutaneous osmotic pumps containing either vehicle Z944 (60 mg/kg/day), or levetiracetam (200 mg/kg/day) that delivered the treatment continuously for 4 weeks. Immediately after the pump implantation, SE was stopped with diazepam (5 mg/kg/dose).
vEEG recordings commenced at least 4 h prior the induction of SE to provide baseline recordings. The video-EEG recordings continued for the whole duration of the treatment period, i.e. four weeks after the termination of the SE. […] EEG analysis was performed in a blinded manner and confirmed by two different observers. All EEG recordings were visually and manually annotated using Profusion 3 software. A seizure was defined as an episode of rhythmic spiking activity that was three times the baseline amplitude and a frequency >5 Hz that lasted at least 10 s. The end of a seizure was determined as the last spike. The average number of seizures per day, average seizure duration and seizure class (severity) were analysed.

The test system of data set [5] is post-SE rats. The data set is described as follows: Morris water maze in post-SE rats. The format is in vivo, rat. The conditions noted are these: Z944 60 mg/kg/day, levetiracetam 200 mg/kg/day for 4 weeks. Here is the method:
All behavioural tests were performed in a light-controlled (˜110 lux), closed, quiet and clean room in the. Behavioural testing was performed in a blinded manner to the treatment groups. All of the behavioural tests were video recorded for future analysis. OF, EPM and MWM sessions were filmed using a digital camera mounted above the centre of the arena, which was connected to a computer for the recording and objective analysis of digitized behavioural tests (EthoVision 3.0.15, Noldus). The first behavioural test was performed one week after the last EEG recording. The different behavioural tests/session were performed 24 hours apart from each other. All tests were scored by an experienced observer who was blind to the experimental conditions of the animals.
The MWM is a circular black PVC plastic pool of 160 cm diameter which is filled to a depth of either 2.5 cm above a 10 cm diameter hidden platform water at 25±1° C. The platform is located in the centre of the South-West quadrant during the first 3 sessions and changed to North-East quadrant for the remaining sessions. Visual cues are placed in the main 4 cardinal points, consisting of large black and white symbols that serve as orientation landmarks for the rats. […] The latency to find the escape platform, speed and strategic path used by the animal to locate the platform are recorded. […]

hCaV3.2, sequence (O95180 whole entry): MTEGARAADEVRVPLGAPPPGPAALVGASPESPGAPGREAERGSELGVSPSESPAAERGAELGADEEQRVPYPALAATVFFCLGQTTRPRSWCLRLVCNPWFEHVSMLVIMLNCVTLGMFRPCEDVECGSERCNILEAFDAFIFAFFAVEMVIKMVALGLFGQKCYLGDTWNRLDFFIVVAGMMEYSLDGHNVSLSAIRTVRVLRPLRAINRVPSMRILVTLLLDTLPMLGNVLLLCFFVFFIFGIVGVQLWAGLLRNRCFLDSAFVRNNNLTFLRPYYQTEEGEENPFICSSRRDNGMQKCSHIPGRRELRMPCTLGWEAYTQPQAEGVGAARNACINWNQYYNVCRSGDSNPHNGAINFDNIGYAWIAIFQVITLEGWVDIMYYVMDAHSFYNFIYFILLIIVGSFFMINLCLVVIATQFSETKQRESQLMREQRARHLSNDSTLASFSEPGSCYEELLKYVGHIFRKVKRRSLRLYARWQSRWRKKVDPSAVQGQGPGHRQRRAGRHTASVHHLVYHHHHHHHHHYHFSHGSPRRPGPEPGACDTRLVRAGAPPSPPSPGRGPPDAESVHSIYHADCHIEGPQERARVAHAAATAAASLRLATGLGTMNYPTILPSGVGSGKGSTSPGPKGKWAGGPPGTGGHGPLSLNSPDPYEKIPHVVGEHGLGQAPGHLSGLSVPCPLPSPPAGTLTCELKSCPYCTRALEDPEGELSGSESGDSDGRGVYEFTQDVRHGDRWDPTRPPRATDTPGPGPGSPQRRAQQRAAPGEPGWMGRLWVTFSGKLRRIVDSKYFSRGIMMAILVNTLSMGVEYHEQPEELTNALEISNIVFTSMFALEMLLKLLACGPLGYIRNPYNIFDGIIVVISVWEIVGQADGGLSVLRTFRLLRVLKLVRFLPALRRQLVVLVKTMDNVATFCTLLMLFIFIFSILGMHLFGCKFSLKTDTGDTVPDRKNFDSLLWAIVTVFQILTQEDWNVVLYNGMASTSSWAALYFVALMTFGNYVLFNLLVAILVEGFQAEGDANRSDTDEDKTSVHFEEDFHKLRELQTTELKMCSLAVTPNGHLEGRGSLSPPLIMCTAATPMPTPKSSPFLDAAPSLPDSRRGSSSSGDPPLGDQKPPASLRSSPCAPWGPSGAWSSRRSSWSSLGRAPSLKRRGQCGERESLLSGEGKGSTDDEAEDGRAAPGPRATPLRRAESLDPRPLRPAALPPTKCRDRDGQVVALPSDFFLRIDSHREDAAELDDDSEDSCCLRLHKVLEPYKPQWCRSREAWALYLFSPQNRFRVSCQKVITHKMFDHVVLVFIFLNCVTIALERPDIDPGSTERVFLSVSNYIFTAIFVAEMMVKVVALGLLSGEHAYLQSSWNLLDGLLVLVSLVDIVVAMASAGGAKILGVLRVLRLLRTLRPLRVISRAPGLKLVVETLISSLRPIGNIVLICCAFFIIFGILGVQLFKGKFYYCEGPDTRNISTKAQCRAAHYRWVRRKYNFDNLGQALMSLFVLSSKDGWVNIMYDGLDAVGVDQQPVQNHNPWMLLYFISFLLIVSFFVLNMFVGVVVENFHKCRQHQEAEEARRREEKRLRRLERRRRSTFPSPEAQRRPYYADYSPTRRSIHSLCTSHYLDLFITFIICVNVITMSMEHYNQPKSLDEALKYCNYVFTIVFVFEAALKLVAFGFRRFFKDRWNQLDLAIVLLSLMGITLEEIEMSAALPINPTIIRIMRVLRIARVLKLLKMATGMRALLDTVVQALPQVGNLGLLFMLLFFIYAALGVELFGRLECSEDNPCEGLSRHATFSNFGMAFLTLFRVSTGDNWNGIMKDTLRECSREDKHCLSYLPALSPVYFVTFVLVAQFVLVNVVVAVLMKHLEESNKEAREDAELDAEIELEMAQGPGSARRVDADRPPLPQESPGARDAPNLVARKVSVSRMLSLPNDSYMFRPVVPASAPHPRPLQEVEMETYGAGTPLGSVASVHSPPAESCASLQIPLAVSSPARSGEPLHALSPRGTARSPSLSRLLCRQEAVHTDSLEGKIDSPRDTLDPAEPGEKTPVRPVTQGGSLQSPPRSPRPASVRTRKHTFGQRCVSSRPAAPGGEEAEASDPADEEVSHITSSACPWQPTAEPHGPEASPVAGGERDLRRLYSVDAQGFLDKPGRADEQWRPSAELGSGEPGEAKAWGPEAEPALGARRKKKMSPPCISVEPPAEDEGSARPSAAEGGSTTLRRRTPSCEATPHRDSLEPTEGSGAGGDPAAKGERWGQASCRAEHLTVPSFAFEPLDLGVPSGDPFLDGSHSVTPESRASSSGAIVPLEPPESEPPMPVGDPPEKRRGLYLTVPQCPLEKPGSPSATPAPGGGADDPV

`CC(C)(C)NC(=O)CN1CCC(CNC(=O)c2cccc(Cl)c2)CC1` [Z941]: in data set [1], it took 0.00012 mM to reach half-maximal inhibition (IC50) and the “slope of the concentration-inhibition curve” value is 0.8.
As to `NC(=O)N1c2ccccc2C=Cc2ccccc21` [Carbamazepine, carbamazepine, reference compound], the “seizure class elicited (Racine scale)” value in data set [2] (IP, Z944 5, 10, 30, 100 mg/kg, CBZ 30 mg/kg, compared to vehicle) is on record as “significantly reduced the class of seizure elicited”. Moreover, the primary after discharge entry in data set [2] (IP, CBZ 30 mg/kg) is reported as “did not affect the primary after discharge”. For the same compound, the “adverse effects (sedation scale 0-4) compared to vehicle” value in data set [2] (Z944 100 mg/kg, CBZ 30 mg/kg IP, p<0.01) is “significantly higher adverse effects”.
Consider `CCC1(C)CC(=O)NC1=O` (stereo not drawn) [Ethosuximide, ethosuximide, reference compound], for which inhibition in data set [1] was half-maximal at 70 mM (IC50). Moreover, in data set [2] (IP, CBZ 30 mg/kg), the primary after discharge entry is on record as “did not affect the primary after discharge”.
`CCCC(CCC)C(=O)[O-].[Na+]` [Valproate, sodium valproate]: the “slope of the concentration-inhibition curve” value in data set [1] turned out to be 4.4. The “patients whose seizures were completely controlled” value was 44% in data set [3] (at 12 months) and 58% in data set [3] (at 16 weeks, video-EEG recordings).
Turning to `CC[C@@H](C(N)=O)N1CCCC1=O` [levetiracetam, reference compound], the “neurological adverse effects after prolonged treatment” value in data set [4] was “only transient and minor neurological adverse effects”. Further, the “time to find the hidden platform (cognition)” value in data set [5] is listed as “took significantly longer to find the hidden platform”.
